Measured values as given in patent US6723703B2, “Therapeutic use of aerosolized S-nitrosoglutathione in cystic fibrosis” (Duke University, priority 2000, dated 2004).
“Also recorded” adds a separate entry of the source.

Key:
[1] = test system: human CFTR protein bearing the ΔF508 mutation; assay: Western blot of CFTR in CFPAC-1 cells treated with GSNO; type: cell-based
Description: FIG. 1. […] Human pancreatic adenocarcinoma cells from a patient homozygous for ΔF508 (CFPAC-1) were grown to confluence and treated with medium alone (control) or 500 nM, 1 μM, 5 μM, 10 μM or 100 mM GSNO for 6 hours. The cells were harvested, lysed, resuspended in NP40 buffer and underwent Western Blot analysis with anti-CFTR antibody. […] Increased expression of the immature non-glycosylated protein (140 kDa) reflects decreased degradation of the immature protein in the endoplasma retimulum The appearance of a band at 180 kDa (mature protein) reflects maturation of the protein in the endoplasmic reticulum, an expression of a form capable of being expressed on the cell surface representative of three experiments. The full maturing of the protein accommodates for the ΔF508 mutation.

[2] = test system: patients with CF; assay: Double-blind, placebo-controlled nebulized GSNO study in patients with CF; type: in vivo, human
Description: FIG. 3. […] In a double-blind, placebo-controlled study, patients with CF received GSNO in 10 mM phosphate buffered saline (PBS) (n=9) or 10 mM PBS alone (n=11) by nebulizer. The two groups were matched with respect to age, vital signs, oxygen saturation, vital capacity, FEV1, and FEF25-75(p=7). Change in oxygen saturation from pretreatment baseline is recorded as a function of time. Results are shown in FIG. 3 where the continuous line represents the GSNO group and the line composed of dashes represents the PBS alone group. […] FIG. 4. Inhaled S-nitrosoglutathione cases increased expired nitric oxide (NO) concentration in CF. Data presented represent the two groups described in FIG. 3, but with respect to expired nitric oxide concentration (measured off-line with chemiluminescence in accordance with American Thoracic Society guidelines). Results are shown in FIG. 4 where the continuous line represents the GSNO group and the line composed of dashes represents the PBS alone group. […] Note that the change at 30 minutes is less pronounced than at 5 minutes, though improvement in oxygenation is as dramatic at 30 minutes as at 5 minutes. […] These S-nitrosylation reactions may be critically important to smooth muscle relaxation, antimicrobial effects and modification of ion channel function. FIGS. 5A, 5B, 5C, 5D, 5E and 5F. Inhaled S-nitrosoglutathione is well tolerated in CF patients.

[3] = test system: ubiquitin proteosome pathway; assay: Inhibition of the ubiquitin proteosome pathway (preliminary evidence); conditions: stabilizes expression of hypoxy inducible factor 1
Excerpt: Cystic fibrosis is caused by mutations in a membrane-associated chloride channel, the cystic fibrosis transmembrane regulatory protein (CFTR). The most common mutation, accounting for 70% of alleles, is a 3 base pair (single amino acid) deletion at the 508 position on the first ATP binding domain, the (ΔF508) mutation. This is referred to as a class II mutation in that intact and potentially functional protein is degraded in the endoplasm reticulum because of a small folding error. It is known that his degradation can be bypassed in vitro by hypothermia and by treatment with compounds,such as glycerol and phenylbutyrate. These treatments result in functional expression of (ΔF508) CFTR on the cell surface. It has recently been proposed that CFTR degradation in the endoplasmic reticulum (ER) is mediated by the ubiquitin-proteasome system.

[4] = test system: human airway smooth muscle preparations; conditions: read-out: IC50 in relaxing human airway smooth muscle preparations; cited from earlier work
[5] = cited from earlier work
[6] = cells homozygous to the ΔF508 mutation, 100 μM GSNO

## N[C@@H](CCC(=O)N[C@@H](CSN=O)C(=O)NCC(=O)O)C(=O)O [GSNO, S-nitrosoglutathione]
[1]; CFPAC-1 cells, 500 nM, 1 μM, 5 μM, 10 μM or 100 mM GSNO for 6 hours
  stabilization and maturation of ΔF508 CFTR protein (Western blot, 140/160/180 kDa bands): stabilizes and allows maturation of human CFTR protein bearing the ΔF508 mutation
[1]; [6]
  expression of CFTR: increases the expression of CFTR
  maturation of CFTR: increases the maturation of CFTR
[2]; CF patients, inhaled 0.05 ml/kg of 10 mM GSNO
  tolerability (vital signs, lung function, systemic effects): no acute change in vital signs or lung function was observed; also recorded: well tolerated in CF and has no adverse systemic affects
[2]; inhalation of 0.05 ml/kg of 10 mM GSNO by nebulizer vs PBS alone, p<0.001 by ANOVA
  change in oxygen saturation from pretreatment baseline: greater improvement in oxygen saturation than those in the PBS group; also recorded: improved oxygenation
[3]
  inhibition of ubiquitin proteosome pathway: inhibits the ubiquitin proteosome pathway
[4]
  IC50: ~10 µM
[5]
  stability at acid pH: stable at acid pH
